Measured values published in patent US8338565B2, “Macrocyclic compounds for inhibition of tumor necrosis factor alpha” (Ensemble Therapeutics Corporation, priority 2008, dated 2012).
Where two headings read alike, the source gives them in different places. Numbered stars: 1 amine (or outer) side, 2 acyl side, 3 side chain; on linkers, the order of the positions; unused ones are H or OH. Bridge positions count the residues as written; N and C are the ends. Square brackets hold non-standard residues; d marks the D form. Peptide text beside a SMILES is read from it. * marks the point of attachment. Phe(4-CF3) = N[C@@H](Cc1ccc(C(F)(F)F)cc1)C(=O)O; Bip = N[C@@H](Cc1ccc(-c2ccccc2)cc1)C(=O)O; dBip = N[C@H](Cc1ccc(-c2ccccc2)cc1)C(=O)O; dPhe(4-NH2) = Nc1ccc(C[C@@H](N)C(=O)O)cc1; Phe(4-Br) = N[C@@H](Cc1ccc(Br)cc1)C(=O)O; Phe(4-NH2) = Nc1ccc(C[C@H](N)C(=O)O)cc1; d2Thi = N[C@H](Cc1cccs1)C(=O)O; Suc = O=C(CCC(=O)[*:2])[*:1]; Boc = CC(C)(C)OC(=O)*; βAla = NCCC(=O)O

What was measured:
[1] = tested on: TNF-α (degradation of IkB in HeLa cells or A431 cells); assay: Human cell-based assay: inhibition of TNF-α induced degradation of IkB; details: for inhibition at 5 µM: read-out: Inhibition at Various Compound Concentrations, 5 μM; for inhibition at 10 µM: read-out: Inhibition at Various Compound Concentrations, 10 μM; for inhibition at 25 µM: 25 μM compound, read-out: Inhibition at Various Compound Concentrations, 25 μM
Method: We used a human cell-based assay to determine the TNF-α antagonistic activity of the compounds of this invention based upon the ability of the compounds to inhibit the degradation of IkB in those cells. The assay was performed on either HeLa cells or A431 cells.
On Day 1, wells of a 24-well tissue culture plate were seeded with cells that had been harvested from cultures in T-75 flasks by standard trypsin/EDTA treatment. The harvested cells were suspended in EMEM/10% FBS/P/S (100,000 HeLa cells/mL or 200,000 A431 cells/mL) and 1 mL aliquots were placed into each well. The cells were incubated overnight at 37° C. in a humidified CO2 incubator. On day 2, the cells were approximately 95% confluent.
Test and control compounds were diluted to a 1 mM solution by dilution in DMSO. The assay was run in Costar tubes. Into each tube was placed 2.5 or 5.0 μL of test compound (for testing 5 μM and 10 μM concentrations, respectively), 2.5 μL of 100× TNF-α solution (200 ng/mL TNF-α in EMEM containing 1μg/mL cycloheximide) and, for those tubes containing 2.5 μL of compound, an additional 2.5 μL of DMSO. To each tube was then added 0.5 mL of EMEM containing 1μg/mL cycloheximide. Negative control tubes contained either a) no compound, or b) no TNF-α. Tubes were then incubated for 30 minutes at room temperature.
Once incubation had begun, the media was aspirated from the cells in the 24-well plates. Sufficient EMEM/10% FBS/P/S containing 1 ug/mL cycloheximide was then added to cover the cells (approximately 3 mL) and the cells were retuned to the 37° C. humidified CO2 incubator until compound incubation was completed. The media was then aspirated from the cells, 0.2 mL of the compound solution was added and the cells re-incubated at 37° C. for 30 minutes. The plates were then placed on ice, the compound solution was aspirated from each well, and the cells washed once with 1 mL of cold PBS. Cells were then fixed with 500 μL of 3.7% formaldehyde in PBS (“fix solution”) for 20 minutes at room temperature. The fix solution was decanted and the cells permeabilized by 4× washing with 500 uL PBS/0.1% Triton X-100. After the final permeabilization wash, the cells were treated with 500 uL of Odyssey blocking buffer (OBB) and incubated at room temperature with shaking for 90 minutes.
The OBB was decanted and then to each well was then added 125 μL each of mouse anti-IkB CST#4814 (diluted 1:200 in OBB) and rabbit anti-beta-tubulin CST#2146 (diluted 1:200 in OBB). Plates were sealed with parafin and incubated overnight at room temperature with shaking.
On day 3, the antibody solution was removed from the cells and the cells were washed 5× with 0.5 mL PBST for five minutes each on a shaker. To each well was then aded 125 μL of a secondary antibody solution containing goat anti-mouse IgG-IRDye 800 and goat anti-rabbit IgG-IRDye (each diluted 1:500 in OBB+0.2% Tween 20). The plates were covered with aluminum foil and incubated for 1 hour at room temperature with shaking. The secondary antibody solution was removed and the cells washed 3× with 0.5 mL PBST for five minutes each on a shaker. Cells were then scanned by LICOR with the following settings: 700 intensity=6.0, 800 intensity=6.5; microplate2 settings with 3.0 mm offset; 169 resolution. LICOR values were fitted to an equation for a sigmoidal curve and IC50 values calculated from the fitted parameters. […] Blank cells indicate that the compound was not tested at that concentration. Certain compounds that were tested more than once and the values reflect the average of the multiple tests.

[2] = target: T1, TNFα / TNFα receptor (TNFα R1/Fc) (Homo sapiens, UniProt P01375); assay: Inhibition of binding of TNFα to the TNFα receptor (plate ELISA competition); details: Table 2
T1 construct: purchased R&D Systems
T1 sequence (P01375 77-233 limits assumed, species assumed): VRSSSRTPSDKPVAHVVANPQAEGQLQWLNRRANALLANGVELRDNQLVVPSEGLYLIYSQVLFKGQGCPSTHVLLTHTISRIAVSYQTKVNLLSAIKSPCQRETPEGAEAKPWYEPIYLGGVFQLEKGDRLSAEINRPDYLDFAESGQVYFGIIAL
Method in brief: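 Plates were coated with TNFα at 15 nM. Test compound and 8.33 nM receptor-Fc (PBST, 2% DMSO) were first mixed in solution for 30 min at room temperature, then transferred to the plates for another 30 min. Competition was read by absorbance at 450 nm after HRP anti-human IgG Fc detection with TMB.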

[3] = read-out: Activity (IC50, inhibition of TNFα binding to TNFα R1/Fc)
[4] = 5 μM compound, HeLa or A431 cells
[5] = 10 μM compound, HeLa or A431 cells
[6] = Activity (IC50, inhibition of TNFα binding to TNFα R1/Fc)

Structure (SMILES) | inhibition at 5 µM [1] | inhibition at 10 µM [1] | IC50 [2, 3] | inhibition at 25 µM ([1]; HeLa or A431 cells) | inhibition at 5 µM [1, 4] | inhibition at 10 µM [1, 5] | IC50 [2, 6]
COc1ccc(-c2ccc(C[C@@H]3NC(=O)[C@H](Cc4cccs4)NC(=O)COc4ccc(cc4)C[C@@H](C(=O)O)NC(=O)[C@H](Cc4ccccc4)NC3=O)cc2)cc1 [Compound 364] | 50 to 80% | 10 to 50% | < 10 µM | – | – | – | –
CC(C)(C)OC(=O)NCCCC[C@H](NC(=O)[C@@H]1Cc2ccc(cc2)NC(=O)CCC(=O)N[C@H](Cc2cccs2)C(=O)N[C@@H](Cc2ccc(-c3ccccc3)cc2)C(=O)N[C@H](Cc2ccccc2)C(=O)N1)C(=O)O [Compound 35] ([d2Thi][Bip][dF][Phe(4-NH2)]K(Boc)-OH; linker N-4 via Suc) | – | – | 10 to 30 µM | 50 to 80% | – | – | –
O=C(O)CCCNC(=O)[C@@H]1Cc2ccc(cc2)OCC(=O)N[C@H](Cc2cccs2)C(=O)N[C@@H](Cc2ccc(-c3ccccc3)cc2)C(=O)N[C@H](CCc2ccccc2)C(=O)N1 [Compound 298] | – | – | < 10 µM | – | < 10% | < 10% | –
CC(C)(NC(=O)[C@@H]1Cc2ccc(cc2)OCC(=O)N[C@H](Cc2cccs2)C(=O)N[C@@H](Cc2ccc(-c3ccccc3)cc2)C(=O)N[C@H](CCc2ccccc2)C(=O)N1)C(=O)O [Compound 297] | – | – | < 10 µM | – | < 10% | < 10% | –
O=C1COc2ccc(cc2)C[C@@H](C(=O)NC2(C(=O)O)CC2)NC(=O)[C@H](Cc2ccccc2)NC(=O)[C@@H](Cc2ccc(-c3ccccc3)cc2)NC(=O)[C@H](Cc2cccs2)N1 [Compound 391] | 10 to 50% | 10 to 50% | – | – | – | – | < 10 µM
O=C1CCC(=O)N[C@H](Cc2cccs2)C(=O)N[C@@H](Cc2ccc(C(F)(F)F)cc2)C(=O)N[C@H](Cc2ccccc2)C(=O)N[C@H](C(=O)O)Cc2ccc(cc2)N1 [Compound 89] ([d2Thi][Phe(4-CF3)][dF][Phe(4-NH2)]-OH; linker N-4 via Suc) | – | – | 10 to 30 µM | < 10% | – | – | –
O=C(O)CCNC(=O)[C@@H]1Cc2ccc(cc2)NC(=O)CCC(=O)N[C@H](Cc2cccs2)C(=O)N[C@@H](Cc2ccc(-c3ccccc3)cc2)C(=O)N[C@H](Cc2ccccc2)C(=O)N1 [Compound 21] ([d2Thi][Bip][dF][Phe(4-NH2)][βAla]-OH; linker N-4 via Suc) | – | – | < 10 µM | < 10% | – | – | –
O=C1CCC(=O)N[C@H](Cc2cccs2)C(=O)N[C@@H](Cc2ccc(Br)cc2)C(=O)N[C@H](Cc2ccccc2)C(=O)N[C@H](C(=O)N[C@@H](Cc2ccccc2)C(=O)O)Cc2ccc(cc2)N1 [Compound 201] ([d2Thi][Phe(4-Br)][dF][Phe(4-NH2)]F-OH; linker N-4 via Suc) | – | – | < 10 µM | – | – | 10 to 50% | –
O=C1COc2ccc(cc2)C[C@@H](C(=O)N[C@@H](Cc2ccc(O)cc2)C(=O)O)NC(=O)[C@H](Cc2ccccc2)NC(=O)[C@H](Cc2ccc(-c3ccccc3)cc2)NC(=O)[C@H](Cc2cccs2)N1 [Compound 343] | – | – | < 10 µM | – | < 10% | 10 to 50% | –
O=C(O)[C@H](Cc1ccccc1)NC(=O)[C@@H]1Cc2ccc(cc2)NC(=O)[C@H](O)[C@@H](O)C(=O)N[C@H](Cc2cccs2)C(=O)N[C@@H](Cc2ccc(-c3ccccc3)cc2)C(=O)N[C@H](CCc2ccccc2)C(=O)N1 [Compound 350] | – | – | < 10 µM | – | 10 to 50% | 10 to 50% | –
CC[C@H](C)[C@H](NC(=O)[C@@H]1Cc2ccc(cc2)OCC(=O)N[C@H](Cc2cccs2)C(=O)N[C@@H](Cc2ccc(-c3ccccc3)cc2)C(=O)N[C@H](CCc2ccccc2)C(=O)N1)C(=O)O [Compound 307] | – | – | < 10 µM | – | – | < 10% | –
COC(=O)c1ccc(-c2ccc(C[C@@H]3NC(=O)[C@@H](Cc4cccs4)NC(=O)[C@H](O)[C@@H](O)C(=O)Nc4ccc(cc4)C[C@@H](C(=O)O)NC(=O)[C@@H](Cc4ccccc4)NC3=O)cc2)cc1 [Compound 332] | – | – | < 10 µM | – | < 10% | – | –
O=C(O)[C@@H]1Cc2ccc(cc2)NC(=O)[C@H](O)[C@@H](O)C(=O)N[C@H](Cc2cccs2)C(=O)N[C@@H](Cc2ccc(-c3ccccc3)cc2)C(=O)N[C@@H](CCc2ccccc2)C(=O)N1 [Compound 290] | – | – | < 10 µM | – | < 10% | < 10% | –
O=C1CCC(=O)N[C@H](Cc2cccs2)C(=O)N[C@H](Cc2ccc(-c3ccccc3)cc2)C(=O)N[C@H](Cc2ccccc2)C(=O)N[C@H](C(=O)O)Cc2ccc(cc2)N1 [Compound 194] ([d2Thi][dBip][dF][Phe(4-NH2)]-OH; linker N-4 via Suc) | – | – | > 100 µM | < 10% | – | – | –
O=C1CCC(=O)N[C@H](Cc2cccs2)C(=O)N[C@@H](Cc2ccc(-c3ccccc3)cc2)C(=O)N[C@H](Cc2ccccc2)C(=O)N[C@@H](C(=O)N[C@@H](Cc2ccccc2)C(=O)O)Cc2ccc(cc2)N1 [Compound 198] ([d2Thi][Bip][dF][dPhe(4-NH2)]F-OH; linker N-4 via Suc) | – | – | < 10 µM | 50 to 80% | – | – | –
O=C1COc2ccc(cc2)C[C@@H](C(=O)N[C@@H](Cc2ccccc2)C(=O)O)NC(=O)[C@@H](CCc2ccccc2)NC(=O)[C@H](Cc2ccc(-c3ccccc3)cc2)NC(=O)[C@@H](CCc2ccccc2)N1 [Compound 158] | 50 to 80% | 50 to 80% | – | – | – | – | < 10 µM
C[C@@H](NC(=O)[C@@H]1Cc2ccc(cc2)OCC(=O)N[C@@H](Cc2cccs2)C(=O)N[C@@H](Cc2ccc(-c3ccccc3)cc2)C(=O)N[C@@H](Cc2ccccc2)C(=O)N1)C(=O)O [Compound 341] | – | – | < 10 µM | – | – | < 10% | –
O=C1COc2ccc(cc2)C[C@@H](C(=O)O)NC(=O)[C@H](Cc2ccccc2)NC(=O)[C@H](Cc2ccc(-c3ccccc3)cc2)NC(=O)[C@H](Cc2cccs2)N1 [Compound 212] | < 10% | < 10% | < 10 µM | – | – | – | –
O=C(O)[C@@H]1Cc2ccc(cc2)NC(=O)[C@H](O)[C@@H](O)C(=O)N[C@H](Cc2cccs2)C(=O)N[C@@H](Cc2ccc(-c3ccccc3)cc2)C(=O)N[C@H](CCc2ccccc2)C(=O)N1 [Compound 289] | – | – | < 10 µM | – | < 10% | < 10% | –
O=C(O)[C@H](Cc1ccccc1)NC(=O)[C@@H]1Cc2ccc(cc2)NC(=O)[C@H](O)[C@@H](O)C(=O)N[C@H](Cc2ccc(F)c(F)c2)C(=O)N[C@@H](Cc2ccc(-c3ccccc3)cc2)C(=O)N[C@H](Cc2ccccc2)C(=O)N1 [Compound 282] | – | – | < 10 µM | – | 50 to 80% | 10 to 50% | –
